Calls of active or inactive are those of the source. No cut-off for these calls is given here.
Legend:
[1] = Inhibition of TEM-1 (unknown origin) using nitrocefin as substrate preincubated 10 mins followed by substrate addition measured after 20 mins
[2] = Inhibition of NDM-1 (unknown origin) using nitrocefin as substrate preincubated 10 mins followed by substrate addition measured after 20 mins
[3] = Inhibition of TEM-1 (unknown origin) using nitrocefin as substrate preincubated 10 mins followed by substrate addition measured after 20 mins relative to control
[4] = Time-dependent inhibition of wild type NDM-1 (unknown origin) expressed in Escherichia coli BL21 (DE3) at 100 uM
[5] = Time-dependent inhibition of recombinant NDM-1 C108D mutant (unknown origin) expressed in Escherichia coli BL21 (DE3) at 100 uM

Compound | IC50 [1] [µM] | IC50 [2] [µM] | Imax [3] [%] | inhibition [4] | inhibition [5]
CCN(CC)C(=O)N[C@@H]1C[C@@H]2c3cccc4[nH]cc(c34)C[C@H]2N(C)C1 | > 30 | > 30 |  |  | 
Nc1ccc2c3c(cccc13)C(=O)NC2=O | 5.2 | 0.7 | 131 |  | 
4-CHLOROMERCURIBENZOIC ACID | > 30 | 2.3 |  |  | 
4-[sequence] ACID |  |  | 8 | Active | inactive
OCCN(CCO)c1nc(N2CCCCC2)c2nc(N(CCO)CCO)nc(N3CCCCC3)c2n1 [DIPYRIDAMOLE] | > 30 | > 10 | 26 |  | 
Cc1c2ccncc2c(C)c2c1[nH]c1ccccc12 [ELLIPTECINE] | > 30 | > 30 |  |  | 
CC(=O)[C@]1(O)Cc2c(O)c3c(c(O)c2[C@@H](O[C@H]2C[C@H](N)[C@H](O)[C@H](C)O2)C1)C(=O)c1ccccc1C3=O [IDARUBICIN] | 7.3 | 0.7 | 100 |  | 
Cn1cc(C2=C(c3ccc(Cl)cc3Cl)C(=O)NC2=O)c2ccccc21 [SB-216763] | > 30 | 28 | 2 |  | 
